In the supplement of paper PMC10307832:

Tests used:
Assay in all cases: relative viability (nuclei count vs DMSO), 5 days (fraction); higher = more cells survive
NCI-H2405 = test system: NCI-H2405
Method in brief: (§1)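 One day after seeding in 1536-well plates, lung cancer cell lines were dosed by pin tool. Dosing was either single-drug or a fixed anchor-drug dose plus five library-drug doses (not always all listed) in √10 steps. After 5 days, nuclei were stained in one fix-and-stain step and counted on 4× images, and relative viability is the nuclei count of treated wells over that of vehicle wells, given as the median of duplicate plates.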

NCI-H596 = test system: NCI-H596
Method in brief: as §1

PC-14 = test system: PC-14
Method in brief: as §1

HOP-62 = test system: HOP-62
Method in brief: as §1

EPLC-272H = test system: EPLC-272H
Method in brief: as §1

HCC-827 = test system: HCC-827
Method in brief: as §1

NCI-H322M = test system: NCI-H322M
Method in brief: as §1

NCI-H3122 = test system: NCI-H3122
Method in brief: as §1

NCI-H2170 = test system: NCI-H2170
Method in brief: as §1

ABC-1 = test system: ABC-1
Method in brief: as §1

NCI-H838 = test system: NCI-H838
Method in brief: as §1

NCI-H520 = test system: NCI-H520
Method in brief: as §1

O=c1[nH]c2ccccc2n1C1CCN(CCCC(c2ccc(F)cc2)c2ccc(F)cc2)CC1 [Pimozide] + O=C(c1cc(Cc2n[nH]c(=O)c3ccccc23)ccc1F)N1CCN(C(=O)C2CC2)CC1 [Olaparib] (partner 8 µM)
relative viability (NCI-H2405; first compound 0.8 µM): 0.822 | relative viability (NCI-H2405; first compound 2.53 µM): 0.722 | relative viability (NCI-H2405; first compound 8 µM): 0.693 | relative viability (NCI-H596; first compound 0.08 µM): 0.768 | relative viability (NCI-H596; first compound 0.253 µM): 0.755 | relative viability (NCI-H596; first compound 0.8 µM): 0.663 | relative viability (NCI-H596; first compound 2.53 µM): 0.745 | relative viability (NCI-H596; first compound 8 µM): 0.779 | relative viability (PC-14; first compound 0.253 µM): 0.276 | relative viability (PC-14; first compound 0.8 µM): 0.225 | relative viability (PC-14; first compound 2.53 µM): 0.215 | relative viability (PC-14; first compound 8 µM): 0.209 | relative viability (HOP-62; first compound 0.08 µM): 0.588 | relative viability (HOP-62; first compound 0.253 µM): 0.342 | relative viability (HOP-62; first compound 0.8 µM): 0.356 | relative viability (HOP-62; first compound 2.53 µM): 0.39 | relative viability (HOP-62; first compound 8 µM): 0.56 | relative viability (EPLC-272H; first compound 0.08 µM): 0.869 | relative viability (EPLC-272H; first compound 0.253 µM): 0.709 | relative viability (EPLC-272H; first compound 0.8 µM): 0.847 | relative viability (EPLC-272H; first compound 2.53 µM): 0.554 | relative viability (EPLC-272H; first compound 8 µM): 0.646 | relative viability (HCC-827; first compound 0.253 µM): 0.627 | relative viability (HCC-827; first compound 0.8 µM): 0.7 | relative viability (HCC-827; first compound 2.53 µM): 0.747 | relative viability (HCC-827; first compound 8 µM): 0.678 | relative viability (NCI-H322M; first compound 0.08 µM): 0.76 | relative viability (NCI-H322M; first compound 0.253 µM): 0.732 | relative viability (NCI-H322M; first compound 0.8 µM): 0.684 | relative viability (NCI-H322M; first compound 2.53 µM): 0.833 | relative viability (NCI-H322M; first compound 8 µM): 0.795 | relative viability (NCI-H3122; first compound 0.08 µM): 0.529 | relative viability (NCI-H3122; first compound 0.253 µM): 0.684 | relative viability (NCI-H3122; first compound 0.8 µM): 0.66 | relative viability (NCI-H3122; first compound 2.53 µM): 0.637 | relative viability (NCI-H3122; first compound 8 µM): 0.576 | relative viability (NCI-H2170; first compound 0.08 µM): 0.592 | relative viability (NCI-H2170; first compound 0.253 µM): 0.554 | relative viability (NCI-H2170; first compound 0.8 µM): 0.608 | relative viability (NCI-H2170; first compound 2.53 µM): 0.593 | relative viability (NCI-H2170; first compound 8 µM): 0.543 | relative viability (ABC-1; first compound 0.08 µM): 0.782 | relative viability (ABC-1; first compound 0.253 µM): 0.975 | relative viability (ABC-1; first compound 0.8 µM): 1.21 | relative viability (ABC-1; first compound 2.53 µM): 0.618 | relative viability (ABC-1; first compound 8 µM): 0.477 | relative viability (NCI-H838; first compound 0.08 µM): 0.772 | relative viability (NCI-H838; first compound 0.253 µM): 0.757 | relative viability (NCI-H838; first compound 0.8 µM): 0.729 | relative viability (NCI-H838; first compound 2.53 µM): 0.719 | relative viability (NCI-H838; first compound 8 µM): 0.744 | relative viability (NCI-H520; first compound 0.08 µM): 0.33 | relative viability (NCI-H520; first compound 0.253 µM): 0.345 | relative viability (NCI-H520; first compound 0.8 µM): 0.266 | relative viability (NCI-H520; first compound 2.53 µM): 0.312 | relative viability (NCI-H520; first compound 8 µM): 0.276
